For experiment [1], the target named is T1, Muscarinic acetylcholine receptor M2 (Homo sapiens, UniProt P08172). Further: in other assays of this panel Not Active means under 50% inhibition at 10 µM.
T1 sequence (P08172 whole entry): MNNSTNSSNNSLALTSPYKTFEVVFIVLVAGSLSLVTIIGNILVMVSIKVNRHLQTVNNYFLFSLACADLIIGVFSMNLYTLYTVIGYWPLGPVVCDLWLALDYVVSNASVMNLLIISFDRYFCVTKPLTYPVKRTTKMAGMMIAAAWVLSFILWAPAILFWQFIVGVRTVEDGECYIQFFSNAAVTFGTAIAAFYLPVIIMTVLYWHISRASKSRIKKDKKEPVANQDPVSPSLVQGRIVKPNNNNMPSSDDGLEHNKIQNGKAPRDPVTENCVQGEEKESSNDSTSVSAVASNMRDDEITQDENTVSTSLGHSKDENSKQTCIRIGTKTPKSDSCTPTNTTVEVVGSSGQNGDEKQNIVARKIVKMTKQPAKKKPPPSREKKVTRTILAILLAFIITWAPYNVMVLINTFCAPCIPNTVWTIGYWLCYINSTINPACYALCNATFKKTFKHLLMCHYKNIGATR
The class given is cell membranes, CHO-K1, Membrane. Conditions: cho-k1.

The next experiment addresses T2, B2 bradykinin receptor (Homo sapiens, UniProt P30411).
T2 sequence (P30411 whole entry): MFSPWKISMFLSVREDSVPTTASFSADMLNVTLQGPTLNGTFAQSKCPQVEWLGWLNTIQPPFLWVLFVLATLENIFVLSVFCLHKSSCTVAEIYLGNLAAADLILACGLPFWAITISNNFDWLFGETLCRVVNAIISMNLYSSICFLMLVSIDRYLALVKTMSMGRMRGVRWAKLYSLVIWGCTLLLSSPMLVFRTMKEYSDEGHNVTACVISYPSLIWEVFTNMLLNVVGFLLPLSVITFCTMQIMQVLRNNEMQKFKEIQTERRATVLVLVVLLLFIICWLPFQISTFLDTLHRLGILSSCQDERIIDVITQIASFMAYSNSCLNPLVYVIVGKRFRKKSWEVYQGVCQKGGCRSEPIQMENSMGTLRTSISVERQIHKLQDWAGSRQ
The experiment is classed as cell membranes, Membrane. The following applies: chem-1.

A further experiment concerns the target T3, Substance-K receptor (Homo sapiens, UniProt P21452). Further: in other assays of this panel Not Active means under 50% inhibition at 10 µM.
T3 sequence (P21452 whole entry): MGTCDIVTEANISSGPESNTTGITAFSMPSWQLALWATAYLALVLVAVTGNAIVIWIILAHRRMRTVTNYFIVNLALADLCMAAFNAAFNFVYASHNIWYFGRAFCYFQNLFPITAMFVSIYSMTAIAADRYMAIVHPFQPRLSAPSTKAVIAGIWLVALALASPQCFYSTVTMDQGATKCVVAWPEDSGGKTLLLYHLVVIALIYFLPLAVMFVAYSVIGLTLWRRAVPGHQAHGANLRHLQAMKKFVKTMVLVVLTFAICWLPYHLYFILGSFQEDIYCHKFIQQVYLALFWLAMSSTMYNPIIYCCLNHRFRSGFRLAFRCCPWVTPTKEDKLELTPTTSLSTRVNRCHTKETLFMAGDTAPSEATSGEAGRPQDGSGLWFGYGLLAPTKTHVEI
The class given is cell membranes, CHO, Membrane.

For another experiment, the target named is Adenosine receptor A2a (Homo sapiens, UniProt P29274). The experiment can be described thus: DRUGMATRIX: Adenosine A2A radioligand binding (ligand: […]). The class given is cell membranes, HEK293, Membrane. Conditions: Not Active = under 50% inhibition at 10 µM; for pIC50: read-out: IC50; for pKi: read-out: Ki.
Sequence of Adenosine receptor A2a (P29274 whole entry): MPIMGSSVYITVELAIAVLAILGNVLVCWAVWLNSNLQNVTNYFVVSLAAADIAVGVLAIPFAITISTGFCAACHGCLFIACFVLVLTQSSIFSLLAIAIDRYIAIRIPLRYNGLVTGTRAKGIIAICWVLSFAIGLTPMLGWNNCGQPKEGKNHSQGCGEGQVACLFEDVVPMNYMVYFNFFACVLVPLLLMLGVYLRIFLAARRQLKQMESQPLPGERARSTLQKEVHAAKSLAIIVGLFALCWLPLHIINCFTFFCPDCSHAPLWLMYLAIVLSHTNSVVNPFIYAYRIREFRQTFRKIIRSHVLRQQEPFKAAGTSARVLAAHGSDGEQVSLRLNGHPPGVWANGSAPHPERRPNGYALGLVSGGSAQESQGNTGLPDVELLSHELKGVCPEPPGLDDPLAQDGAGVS
Experiment [2] addresses Epidermal growth factor receptor (Homo sapiens, UniProt P00533). The experiment can be described thus: DRUGMATRIX: Protein Tyrosine Kinase, EGF Receptor enzyme inhibition (substrate: Poly(Glu:Tyr)). The experiment is classed as cell-based, Insect cells. The following applies: Not Active = under 50% inhibition at 10 µM.

Here are results for 24 compounds from ChEMBL document CHEMBL1909046, “DrugMatrix in vitro pharmacology data”.

pIC50, pKi: −log10 of the molar value.

In the case of `Cc1c(OCC(F)(F)F)ccnc1C[S+]([O-])c1nc2ccccc2[nH]1` (stereo not drawn) [LANSOPRAZOLE], the IC50 result (in experiment [1]; against B2 bradykinin receptor; against Substance-K receptor (cho); at Adenosine receptor A2a (hek293); in experiment [2] (insect cells)) was “Not Active” in each case.

For the compound `COc1ccc2[nH]cc(CCNC(C)=O)c2c1` [MELATONIN], the IC50 entry (in experiment [1]; against B2 bradykinin receptor; at Substance-K receptor (cho); on Adenosine receptor A2a (hek293); in experiment [2] (insect cells)) was “Not Active” throughout.

In the case of `NC(=O)C[S+]([O-])C(c1ccccc1)c1ccccc1` (stereo not drawn) [MODAFINIL], the IC50 entry (in experiment [1]; against B2 bradykinin receptor; on Substance-K receptor (cho); at Adenosine receptor A2a (hek293); in experiment [2] (insect cells)) was “Not Active” each time.

Turning to `CCN(CC)CCOCCC1=CCC2CC1C2(C)C` (stereo not drawn) [MYRTECAINE], the IC50 entry (in experiment [1]; on B2 bradykinin receptor; on Substance-K receptor (cho); on Adenosine receptor A2a (hek293); in experiment [2] (insect cells)) was “Not Active” each time.

Turning to `O=C(O)c1cccnc1Nc1cccc(C(F)(F)F)c1` [NIFLUMIC ACID], the IC50 result (in experiment [1]; on B2 bradykinin receptor; against Substance-K receptor (cho); at Adenosine receptor A2a (hek293); in experiment [2] (insect cells)) was “Not Active” in each case.

In the case of `O=C(N/N=C/c1ccc([N+](=O)[O-])o1)c1cc([N+](=O)[O-])cc([N+](=O)[O-])c1O` [NIFURSOL], the IC50 entry (in experiment [1]; against B2 bradykinin receptor; against Substance-K receptor (cho); at Adenosine receptor A2a (hek293); in experiment [2] (insect cells)) was “Not Active” throughout.

A word on the pIC50: it is the IC50 on a negative log10 scale, so that one unit is a factor of ten. In general, pKi refers to −log10 of the Ki, conventionally taken in molar units. With `COC(=O)Nc1nc2ccc(C(=O)c3cccs3)cc2[nH]1` [NOCODAZOLE], the IC50 result (in experiment [1]; against B2 bradykinin receptor; against Substance-K receptor (cho); in experiment [2] (insect cells)) was “Not Active” each time. On Adenosine receptor A2a, the negative logarithm of the IC50 (pIC50) is 5.12. In addition, the pKi on Adenosine receptor A2a was 5.37.

As for `C#CC1(O)CC[C@H]2[C@@H]3CCC4=CC(=O)CC[C@@H]4[C@H]3CC[C@@]21CC` (stereo partly drawn) [NORGESTREL], the IC50 entry (in experiment [1]; at B2 bradykinin receptor; against Substance-K receptor (cho); on Adenosine receptor A2a (hek293); in experiment [2] (insect cells)) was “Not Active” throughout.

For the compound `COC(=O)Nc1nc2ccc([S+]([O-])c3ccccc3)cc2[nH]1` (stereo not drawn) [OXFENDAZOLE], the IC50 result (in experiment [1]; on B2 bradykinin receptor; on Substance-K receptor (cho); in experiment [2] (insect cells)) was “Not Active” each time. The negative logarithm of the IC50 (pIC50) on Adenosine receptor A2a is 5.82. Besides, the pKi on Adenosine receptor A2a was 6.07.

Take `CC(=O)O[C@H]1C(=O)[C@@]2(C)[C@H]([C@H](OC(=O)c3ccccc3)[C@]3(O)C[C@H](OC(=O)[C@H](O)[C@@H](NC(=O)c4ccccc4)c4ccccc4)C(C)=C1C3(C)C)[C@]1(OC(C)=O)CO[C@@H]1C[C@@H]2O` [PACLITAXEL]: the IC50 result (in experiment [1]; on B2 bradykinin receptor; at Adenosine receptor A2a (hek293); in experiment [2] (insect cells)) was “Not Active” throughout. The pIC50 at Substance-K receptor (read-out: IC50) is 5.21. In addition, the pKi at Substance-K receptor (read-out: Ki) was 5.69.

Consider `C[n+]1ccc(-c2cc[n+](C)cc2)cc1.[Cl-].[Cl-]` [PARAQUAT DICHLORIDE], for which the IC50 entry (in experiment [1]; against B2 bradykinin receptor; against Substance-K receptor (cho); at Adenosine receptor A2a (hek293); in experiment [2] (insect cells)) was “Not Active” throughout.

`CC(C)NCC(O)COc1cccc2[nH]ccc12` (stereo not drawn) [PINDOLOL]: the IC50 result (in experiment [1]; at B2 bradykinin receptor; against Substance-K receptor (cho); on Adenosine receptor A2a (hek293); in experiment [2] (insect cells)) was “Not Active” each time.

With `CCn1cc(C(=O)O)c(=O)c2cnc(N3CCCC3)nc21` [PIROMIDIC ACID], the IC50 entry (in experiment [1]; on B2 bradykinin receptor; against Substance-K receptor (cho); on Adenosine receptor A2a (hek293); in experiment [2] (insect cells)) was “Not Active” in each case.

On to `C[n+]1ccccc1/C=N/O.[Cl-]` [PRALIDOXIME CHLORIDE], for which the IC50 result (in experiment [1]; against B2 bradykinin receptor; against Substance-K receptor (cho); on Adenosine receptor A2a (hek293); in experiment [2] (insect cells)) was “Not Active” throughout.

As to `COc1cc2nc(N3CCN(C(=O)c4ccco4)CC3)nc(N)c2cc1OC` [PRAZOSIN], the IC50 entry (in experiment [1]; against B2 bradykinin receptor; against Substance-K receptor (cho); at Adenosine receptor A2a (hek293); in experiment [2] (insect cells)) was “Not Active” each time.

For the compound `C[C@]12C=CC(=O)C=C1CC[C@@H]1[C@@H]2[C@@H](O)C[C@@]2(C)[C@H]1CC[C@]2(O)C(=O)CO` [PREDNISOLONE], the IC50 entry (in experiment [1]; against B2 bradykinin receptor; at Substance-K receptor (cho); on Adenosine receptor A2a (hek293); in experiment [2] (insect cells)) was “Not Active” each time.

Consider `CC(=O)[C@H]1[C@H](C#N)C[C@H]2[C@@H]3CC=C4C[C@@H](O)CC[C@]4(C)[C@H]3CC[C@@]21C` [PREGNENOLONE CARBONITRILE], for which the IC50 entry (in experiment [1]; against B2 bradykinin receptor; against Substance-K receptor (cho); at Adenosine receptor A2a (hek293); in experiment [2] (insect cells)) was “Not Active” each time.

As for `CCCN(CCC)S(=O)(=O)c1ccc(C(=O)O)cc1` [PROBENECID], the IC50 entry (in experiment [1]; against B2 bradykinin receptor; on Substance-K receptor (cho); on Adenosine receptor A2a (hek293); in experiment [2] (insect cells)) was “Not Active” in each case.

For the compound `CCCNCC(O)COc1ccccc1C(=O)CCc1ccccc1` (stereo not drawn) [PROPAFENONE], the IC50 result (in experiment [1]; against B2 bradykinin receptor; against Substance-K receptor (cho); on Adenosine receptor A2a (hek293); in experiment [2] (insect cells)) was “Not Active” in each case.

`CCCOc1ccc(C(=O)OCCN(CC)CC)cc1N` [PROPARACAINE]: the IC50 entry (in experiment [1]; on B2 bradykinin receptor; against Substance-K receptor (cho); at Adenosine receptor A2a (hek293); in experiment [2] (insect cells)) was “Not Active” in each case.

In the case of `CC(C)c1cccc(C(C)C)c1O` [PROPOFOL], the IC50 entry (in experiment [1]; at B2 bradykinin receptor; on Substance-K receptor (cho); on Adenosine receptor A2a (hek293); in experiment [2] (insect cells)) was “Not Active” in each case.

Take `C[C@@H]1O[C@@H](O[C@@H]2C=C3CC[C@@H]4[C@H](CC[C@]5(C)[C@@H](c6ccc(=O)oc6)CC[C@]45O)[C@@]3(C)CC2)[C@H](O)[C@H](O)[C@H]1O` [PROSCILLARIDIN]: the IC50 result (in experiment [1]; on B2 bradykinin receptor; on Substance-K receptor (cho); at Adenosine receptor A2a (hek293); in experiment [2] (insect cells)) was “Not Active” each time.

As for `Oc1cccc(O)c1O` [PYROGALLOL], the IC50 entry (in experiment [1]; on B2 bradykinin receptor; at Substance-K receptor (cho); on Adenosine receptor A2a (hek293)) was “Not Active” throughout. The pIC50 in experiment [2] (read-out: IC50) is 5.91.

For the compound AURANOFIN, the IC50 result (in experiment [1]; at B2 bradykinin receptor; against Substance-K receptor (cho); at Adenosine receptor A2a (hek293); in experiment [2] (insect cells)) was “Not Active” each time. The Ki result (in experiment [1]; on B2 bradykinin receptor; on Substance-K receptor (cho); at Adenosine receptor A2a (hek293); in experiment [2] (insect cells)) was “Not Active” in each case.
